According to ChEMBL document CHEMBL5550102, “Caged xanthone derivatives to promote mitochondria-mediated apoptosis in breast cancer cells” (Bioorg Med Chem, 2024):
pIC50: −log10 of the molar value.

Assays:
[1] = system: HepG2; experiment: Cytotoxicity against human HepG2 cells incubated for 72 hrs by CCK8 assay; format: functional, cell-based; details: HepG2, 72 h
[2] = system: A549; experiment: Cytotoxicity against human A549 cells incubated for 72 hrs by CCK8 assay; format: functional, cell-based; details: A549, 72 h
[3] = system: MDA-MB-231; experiment: Cytotoxicity against human MDA-MB-231 cells incubated for 72 hrs by CCK8 assay; format: functional, cell-based; details: MDA-MB-231, 72 h
[4] = system: MDA-MB-231; experiment: Induction of cell cycle arrest at G2/M phase in human MDA-MB-231 cells incubated for 12 to 24 hrs by PI/RNase staining based flow cytometry; format: functional; details: dose <= 20.0 µM, time 12-24 hrs
[5] = system: MDA-MB-231; experiment: Induction of cell cycle arrest at G2/M phase in human MDA-MB-231 cells at 20 uM incubated for 12 to 24 hrs by PI/RNase staining based flow cytometry relative to control; format: functional; details: time 12-24 hrs
[6] = system: MDA-MB-231; experiment: Induction of apoptosis in human MDA-MB-231 cells assessed as viable cells at 15 uM incubated for 24 hrs by Annexin V-FITC/PI staining based flow cytometry (reference value: 88.2 %); format: functional; details: read-out: Activity
[7] = system: MDA-MB-231; experiment: Induction of apoptosis in human MDA-MB-231 cells assessed as early apoptotic cells at 15 uM incubated for 24 hrs by Annexin V-FITC/PI staining based flow cytometry (reference value: 7.39 %); format: functional
[8] = system: MDA-MB-231; experiment: Induction of apoptosis in human MDA-MB-231 cells assessed as late apoptotic cells at 15 uM incubated for 24 hrs by Annexin V-FITC/PI staining based flow cytometry (reference value: 3.36 %); format: functional
[9] = system: MDA-MB-231; experiment: Induction of apoptosis in human MDA-MB-231 cells assessed as necrotic cells at 15 uM incubated for 24 hrs by Annexin V-FITC/PI staining based flow cytometry (reference value: 1.06 %); format: functional
[10] = system: MDA-MB-231; experiment: Induction of apoptosis in human MDA-MB-231 cells assessed as viable cells at 17.5 uM incubated for 24 hrs by Annexin V-FITC/PI staining based flow cytometry (reference value: 88.2 %); format: functional; details: read-out: Activity
[11] = system: MDA-MB-231; experiment: Induction of apoptosis in human MDA-MB-231 cells assessed as early apoptotic cells at 17.5 uM incubated for 24 hrs by Annexin V-FITC/PI staining based flow cytometry (reference value: 7.39 %); format: functional
[12] = system: MDA-MB-231; experiment: Induction of apoptosis in human MDA-MB-231 cells assessed as late apoptotic cells at 17.5 uM incubated for 24 hrs by Annexin V-FITC/PI staining based flow cytometry (reference value: 3.36 %); format: functional
[13] = system: MDA-MB-231; experiment: Induction of apoptosis in human MDA-MB-231 cells assessed as necrotic cells at 17.5 uM incubated for 24 hrs by Annexin V-FITC/PI staining based flow cytometry (reference value: 1.06 %); format: functional
[14] = system: MDA-MB-231; experiment: Induction of apoptosis in human MDA-MB-231 cells assessed as viable cells at 20 uM incubated for 24 hrs by Annexin V-FITC/PI staining based flow cytometry (reference value: 88.2 %); format: functional; details: read-out: Activity
[15] = system: MDA-MB-231; experiment: Induction of apoptosis in human MDA-MB-231 cells assessed as early apoptotic cells at 20 uM incubated for 24 hrs by Annexin V-FITC/PI staining based flow cytometry (reference value: 7.39 %); format: functional
[16] = system: MDA-MB-231; experiment: Induction of apoptosis in human MDA-MB-231 cells assessed as late apoptotic cells at 20 uM incubated for 24 hrs by Annexin V-FITC/PI staining based flow cytometry (reference value: 3.36 %); format: functional
[17] = system: MDA-MB-231; experiment: Induction of apoptosis in human MDA-MB-231 cells assessed as necrotic cells at 20 uM incubated for 24 hrs by Annexin V-FITC/PI staining based flow cytometry (reference value: 1.06 %); format: functional
[18] = system: MDA-MB-231; experiment: Induction of apoptosis in human MDA-MB-231 cells assessed as viable cells at 15 uM incubated for 48 hrs by Annexin V-FITC/PI staining based flow cytometry (reference value: 91.2 %); format: functional; details: read-out: Activity
[19] = system: MDA-MB-231; experiment: Induction of apoptosis in human MDA-MB-231 cells assessed as early apoptotic cells at 15 uM incubated for 48 hrs by Annexin V-FITC/PI staining based flow cytometry (reference value: 5.72 %); format: functional
[20] = system: MDA-MB-231; experiment: Induction of apoptosis in human MDA-MB-231 cells assessed as late apoptotic cells at 15 uM incubated for 48 hrs by Annexin V-FITC/PI staining based flow cytometry (reference value: 2.79 %); format: functional
[21] = system: MDA-MB-231; experiment: Induction of apoptosis in human MDA-MB-231 cells assessed as necrotic cells at 15 uM incubated for 48 hrs by Annexin V-FITC/PI staining based flow cytometry (reference value: 0.33 %); format: functional
[22] = system: MDA-MB-231; experiment: Induction of apoptosis in human MDA-MB-231 cells assessed as viable cells at 17.5 uM incubated for 48 hrs by Annexin V-FITC/PI staining based flow cytometry (reference value: 91.2 %); format: functional; details: read-out: Activity
[23] = system: MDA-MB-231; experiment: Induction of apoptosis in human MDA-MB-231 cells assessed as early apoptotic cells at 17.5 uM incubated for 48 hrs by Annexin V-FITC/PI staining based flow cytometry (reference value: 5.72 %); format: functional
[24] = system: MDA-MB-231; experiment: Induction of apoptosis in human MDA-MB-231 cells assessed as late apoptotic cells at 17.5 uM incubated for 48 hrs by Annexin V-FITC/PI staining based flow cytometry (reference value: 2.79 %); format: functional
[25] = system: MDA-MB-231; experiment: Induction of apoptosis in human MDA-MB-231 cells assessed as necrotic cells at 17.5 uM incubated for 48 hrs by Annexin V-FITC/PI staining based flow cytometry (reference value: 0.33 %); format: functional
[26] = system: MDA-MB-231; experiment: Induction of apoptosis in human MDA-MB-231 cells assessed as viable cells at 20 uM incubated for 48 hrs by Annexin V-FITC/PI staining based flow cytometry (reference value: 91.2 %); format: functional; details: read-out: Activity
[27] = system: MDA-MB-231; experiment: Induction of apoptosis in human MDA-MB-231 cells assessed as early apoptotic cells at 20 uM incubated for 48 hrs by Annexin V-FITC/PI staining based flow cytometry (reference value: 5.72 %); format: functional
[28] = system: MDA-MB-231; experiment: Induction of apoptosis in human MDA-MB-231 cells assessed as late apoptotic cells at 20 uM incubated for 48 hrs by Annexin V-FITC/PI staining based flow cytometry (reference value: 2.79 %); format: functional
[29] = system: MDA-MB-231; experiment: Induction of apoptosis in human MDA-MB-231 cells assessed as necrotic cells at 20 uM incubated for 48 hrs by Annexin V-FITC/PI staining based flow cytometry (reference value: 0.33 %); format: functional
[30] = system: MDA-MB-231; experiment: Induction of mitochondrial dysfunction in human MDA-MB-231 cells assessed as cell with low mitochondrial membrane potential at 15 uM incubated for 24 hrs by JC-1 staining based flow cytometry (reference value: 3.68 %); format: functional
[31] = system: MDA-MB-231; experiment: Induction of mitochondrial dysfunction in human MDA-MB-231 cells assessed as cell with low mitochondrial membrane potential at 17.5 uM incubated for 24 hrs by JC-1 staining based flow cytometry (reference value: 3.68 %); format: functional
[32] = system: MDA-MB-231; experiment: Induction of mitochondrial dysfunction in human MDA-MB-231 cells assessed as cell with low mitochondrial membrane potential at 20 uM incubated for 24 hrs by JC-1 staining based flow cytometry (reference value: 3.68 %); format: functional
[33] = system: MDA-MB-231; experiment: Induction of mitochondrial dysfunction in human MDA-MB-231 cells assessed as cell with low mitochondrial membrane potential at 15 uM incubated for 48 hrs by JC-1 staining based flow cytometry (reference value: 2.50 %); format: functional
[34] = system: MDA-MB-231; experiment: Induction of mitochondrial dysfunction in human MDA-MB-231 cells assessed as cell with low mitochondrial membrane potential at 17.5 uM incubated for 48 hrs by JC-1 staining based flow cytometry (reference value: 2.50 %); format: functional
[35] = system: MDA-MB-231; experiment: Induction of mitochondrial dysfunction in human MDA-MB-231 cells assessed as cell with low mitochondrial membrane potential at 20 uM incubated for 48 hrs by JC-1 staining based flow cytometry (reference value: 2.50 %); format: functional
[36] = system: MDA-MB-231; experiment: Induction of apoptosis in human MDA-MB-231 cells assessed as increase in cleaved caspase-9 level incubated for 24 to 48 hrs by Western blot analysis; format: functional, cell-based; details: dose <= 20.0 µM, time 24-48 hrs
[37] = system: MDA-MB-231; experiment: Induction of apoptosis in human MDA-MB-231 cells assessed as increase in cleaved caspase-9 level upto 20 uM by Western blot analysis; format: functional, cell-based; details: time 24-48 hrs, TDE = time-dependent effect

COC(=O)C[C@]12C=C3C(=O)c4ccccc4O[C@@]3(CC1)[C@H]1C(=O)N(C(C)(C)C)C(=O)[C@H]12
pIC50 [1]: < 4.30 | pIC50 [2]: < 4.30 | pIC50 [3]: < 4.30

COC(=O)C[C@]12C=C3C(=O)c4ccccc4O[C@@]3(CC1)[C@H]1C(=O)N(c3ccccc3)C(=O)[C@H]12
pIC50 [1]: 4.63 | pIC50 [2]: 4.38 | pIC50 [3]: 4.52

COC(=O)C[C@]12C=C3C(=O)c4cc(F)ccc4O[C@@]3(CC1)[C@H]1C(=O)N(c3ccc(Br)cc3)C(=O)[C@H]12
pIC50 [1]: < 4.30 | pIC50 [2]: < 4.30 | pIC50 [3]: < 4.30

COC(=O)C[C@]12C=C3C(=O)c4cccc(C)c4O[C@@]3(CC1)[C@H]1C(=O)N(c3ccc(C(F)(F)F)cc3)C(=O)[C@H]12
pIC50 [1]: 4.48 | pIC50 [2]: 4.40 | pIC50 [3]: 4.57

CC(=O)O[C@H]1C(=O)[C@@]2(C)[C@H]([C@H](OC(=O)c3ccccc3)[C@]3(O)C[C@H](OC(=O)[C@H](O)[C@@H](NC(=O)c4ccccc4)c4ccccc4)C(C)=C1C3(C)C)[C@]1(OC(C)=O)CO[C@@H]1C[C@@H]2O [PACLITAXEL]
pIC50 [1]: 7.22 | pIC50 [2]: 6.40 | pIC50 [3]: 6.96

COC(=O)C[C@]12C=C3C(=O)c4ccccc4O[C@@]3(CC1)[C@H]1C(=O)N(C3CCCCC3)C(=O)[C@H]12
pIC50 [1]: < 4.30 | pIC50 [2]: < 4.30 | pIC50 [3]: < 4.30

COC(=O)C[C@]12C=C3C(=O)c4ccccc4O[C@@]3(CC1)[C@H]1C(=O)N(c3ccc(OC)cc3)C(=O)[C@H]12
pIC50 [1]: < 4.30 | pIC50 [2]: < 4.30 | pIC50 [3]: < 4.30

COC(=O)C[C@]12C=C3C(=O)c4ccccc4O[C@@]3(CC1)[C@H]1C(=O)N(c3ccc(Br)cc3)C(=O)[C@H]12
pIC50 [1]: 4.59 | pIC50 [2]: 4.61 | pIC50 [3]: 4.61

COC(=O)C[C@]12C=C3C(=O)c4cccc(C)c4O[C@@]3(CC1)[C@H]1C(=O)N(c3ccc(Br)cc3)C(=O)[C@H]12
pIC50 [1]: 4.65 | pIC50 [2]: 4.54 | pIC50 [3]: 4.63

COC(=O)C[C@]12C=C3C(=O)c4cc(F)ccc4O[C@@]3(CC1)[C@H]1C(=O)N(c3ccc(C(F)(F)F)cc3)C(=O)[C@H]12
pIC50 [1]: < 4.30 | pIC50 [2]: < 4.30 | pIC50 [3]: < 4.30

COC(=O)C[C@]12C=C3C(=O)c4ccccc4O[C@@]3(CC1)[C@H]1C(=O)NC(=O)[C@H]12
pIC50 [1]: < 4.30 | pIC50 [2]: < 4.30 | pIC50 [3]: < 4.30

COC(=O)C[C@]12C=C3C(=O)c4ccccc4O[C@@]3(CC1)[C@H]1C(=O)N(Cc3ccccc3)C(=O)[C@H]12
pIC50 [1]: < 4.30 | pIC50 [2]: < 4.30 | pIC50 [3]: < 4.30

COC(=O)C[C@]12C=C3C(=O)c4ccccc4O[C@@]3(CC1)[C@H]1C(=O)N(c3ccc(C(F)(F)F)cc3)C(=O)[C@H]12
pIC50 [1]: 4.80 | pIC50 [2]: 4.72 | pIC50 [3]: 4.89 | Activity [4]: Dose-Dependent Effect | Activity [5]: >15% | viability at 15 µM [6]: 84.2% | Activity [7]: 9.01% | Activity [8]: 5.84% | Activity [9]: 0.98% | viability at 17.5 µM [10]: 72.8% | Activity [11]: 15.3% | Activity [12]: 10.3% | Activity [13]: 1.7% | viability at 20 µM [14]: 62.1% | Activity [15]: 18.8% | Activity [16]: 16.8% | Activity [17]: 2.33% | viability at 15 µM [18]: 67.4% | Activity [19]: 24.4% | Activity [20]: 7.51% | Activity [21]: 0.7% | viability at 17.5 µM [22]: 40.7% | Activity [23]: 43.4% | Activity [24]: 14.5% | Activity [25]: 1.38% | viability at 20 µM [26]: 26% | Activity [27]: 56.9% | Activity [28]: 15.2% | Activity [29]: 1.87% | Activity [30]: 29.07% | Activity [31]: 53% | Activity [32]: 59.57% | Activity [33]: 70.23% | Activity [34]: 92.63% | Activity [35]: 96.87% | Activity [36]: Dose-Dependent Effect | Activity [37]: Tde

COC(=O)C[C@]12C=C3C(=O)c4ccccc4O[C@@]3(CC1)[C@H]1C(=O)N(C)C(=O)[C@H]12
pIC50 [1]: 4.78 | pIC50 [2]: 4.43 | pIC50 [3]: 4.43
